In patent publication US9045493B2, “Furo[3,2-b]- and thieno[3,2-b]pyridin derivatives” (Merck Patent GmbH, priority 2012, dated 2015):

Columns and labels:
IKKε = biological target: T1, IKKε (Homo sapiens, UniProt Q14164); experiment: IKKε kinase assay (384-well Flashplate); format: biochemical; conditions: 10 μM ATP, 2 hours at 30° C.; read-out: IKKε enzyme assay IC50
T1 sequence (Q14164 1-716): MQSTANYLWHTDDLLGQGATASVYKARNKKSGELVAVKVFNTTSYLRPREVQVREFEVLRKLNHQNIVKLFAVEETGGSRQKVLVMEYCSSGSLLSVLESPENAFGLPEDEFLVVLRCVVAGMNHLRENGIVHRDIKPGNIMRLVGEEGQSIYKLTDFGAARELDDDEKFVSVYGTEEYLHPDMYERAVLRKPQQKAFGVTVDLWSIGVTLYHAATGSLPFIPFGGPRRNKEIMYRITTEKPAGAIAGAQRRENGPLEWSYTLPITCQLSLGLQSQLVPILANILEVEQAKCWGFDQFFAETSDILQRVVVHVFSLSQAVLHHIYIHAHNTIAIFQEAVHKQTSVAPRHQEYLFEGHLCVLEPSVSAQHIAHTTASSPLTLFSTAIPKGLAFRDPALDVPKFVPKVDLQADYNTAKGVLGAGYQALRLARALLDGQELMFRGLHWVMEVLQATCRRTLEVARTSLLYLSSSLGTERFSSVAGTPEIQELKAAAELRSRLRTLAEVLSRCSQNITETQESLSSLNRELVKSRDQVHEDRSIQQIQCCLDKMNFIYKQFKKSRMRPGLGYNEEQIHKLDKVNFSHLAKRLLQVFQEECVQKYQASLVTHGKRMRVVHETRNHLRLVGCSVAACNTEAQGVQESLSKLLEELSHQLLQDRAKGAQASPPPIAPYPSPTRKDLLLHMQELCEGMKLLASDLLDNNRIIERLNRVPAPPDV
Protocol: The kinase assay is performed either as 384-well Flashplate assay (for e.g. Topcount measurement).
1 nM IKKε, 800 nM biotinylated IκBα(19-42) peptide (Biotin-C6-C6-[…]) and 10 μM ATP (spiked with 0.3 μCi ^33P-ATP/well) are incubated in a total volume of 50 μl (10 mM MOPS, 10 mM Mg-acetat, 0.1 mM EGTA, 1 mM Dithiothreitol, 0.02% Brij35, 0.1% BSA, 0.1% BioStab, pH 7.5) with or without test compound for 2 hours at 30° C. The reaction is stopped with 25 μl 200 mM EDTA. After 30 Min at room temperature the liquid is removed and each well washed thrice with 100 μl 0.9% sodium chloride solution. […] Radioactivity is measured with Topcount (PerkinElmer). Results (e.g. IC50-values) are calculated with program tools provided by the IT-department (e.g. AssayExplorer, Symyx).

[1] = biological target: T2, TANK binding kinase (TBK1) (Homo sapiens, UniProt Q9UHD2); experiment: TBK1 enzyme assay (384-well Flashplate kinase assay); format: biochemical; conditions: 10 μM ATP, 120 Min at 30° C.
T2 sequence (Q9UHD2 1-729): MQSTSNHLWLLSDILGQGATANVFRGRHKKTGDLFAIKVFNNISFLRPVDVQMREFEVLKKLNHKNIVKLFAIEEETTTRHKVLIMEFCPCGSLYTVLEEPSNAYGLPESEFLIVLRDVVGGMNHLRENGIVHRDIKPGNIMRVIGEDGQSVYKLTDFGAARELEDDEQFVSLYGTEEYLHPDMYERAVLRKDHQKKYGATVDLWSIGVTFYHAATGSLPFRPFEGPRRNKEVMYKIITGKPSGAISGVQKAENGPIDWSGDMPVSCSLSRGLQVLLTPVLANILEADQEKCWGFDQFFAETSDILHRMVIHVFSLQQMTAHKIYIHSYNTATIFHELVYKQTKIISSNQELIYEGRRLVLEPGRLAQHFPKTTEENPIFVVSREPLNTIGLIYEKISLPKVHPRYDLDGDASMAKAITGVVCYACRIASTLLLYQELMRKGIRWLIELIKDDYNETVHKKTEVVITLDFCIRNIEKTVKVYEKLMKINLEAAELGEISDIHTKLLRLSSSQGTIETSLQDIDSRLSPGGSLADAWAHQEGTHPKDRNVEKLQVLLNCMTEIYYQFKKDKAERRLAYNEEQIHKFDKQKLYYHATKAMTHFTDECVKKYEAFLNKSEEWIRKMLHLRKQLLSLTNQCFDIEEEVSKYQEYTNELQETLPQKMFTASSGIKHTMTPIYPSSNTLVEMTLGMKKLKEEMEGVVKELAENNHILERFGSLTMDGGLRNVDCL
Protocol: The kinase assay is performed as 384-well Flashplate assay (for e.g. Topcount measurement.
0.6 nM TANK binding kinase (TBK1), 800 nM biotinylated MELK-derived peptide (Biotin-Ah-Ah-[…]) and 10 μM ATP (spiked with 0.25 μCi ^33P-ATP/well) are incubated in a total volume of 50 μl (10 mM MOPS, 10 mM Mg-acetat, 0.1 mM EGTA, 1 mM DTT, 0.02% Brij35, 0.1% BSA, pH 7.5) with or without test compound for 120 Min at 30° C. The reaction is stopped with 25 μl 200 mM EDTA. After 30 Min at room temperature the liquid is removed and each well washed thrice with 100 μl 0.9% sodium chloride solution. Nonspecific reaction is determined in presence of 100 nM Staurosporine. Radioactivity is measured in a Topcount (PerkinElmer). Results (e.g. IC50-values) are calculated with program tools provided by the IT-department (e.g. AssayExplorer, Symyx).

| SMILES | IC50 (IKKε) [nM] | IC50 [1] [nM] |
| --- | --- | --- |
| COc1cc(-c2cc3nccc(-c4ccc(OCC5CC5)c(C#N)c4)c3o2)ccc1C(=O)N1CCNCC1 [Compound A50] | < 300 | < 300 |
| CCN(CCN(C)C)C(=O)c1ccc(-c2cc3nccc(-c4ccc(OC5CCOCC5)c(C#N)c4)c3s2)cc1OC [Compound A51] | < 300 | < 300 |
| COc1cc(-c2cc3nccc(-c4ccc(OC5CCOCC5)c(C#N)c4)c3s2)ccc1C(=O)N1CCNCC1 [Compound A52] | < 300 | < 300 |
| N#Cc1cc(-c2ccnc3cc(-c4ccc(C(=O)N5CCNCC5)cc4)sc23)ccc1OC1CCOCC1 [Compound A53] | < 300 | < 300 |
| N#Cc1cc(-c2ccnc3cc(-c4cnn(CCCO)c4)oc23)ccc1OC1CCOCC1 [Compound A54] | < 300 | < 300 |
| Cc1occc1-c1cc2nccc(-c3ccc(OC4CCOCC4)c(C#N)c3)c2o1 [Compound A55] | < 300 | 300 to 3000 |
| N#Cc1cc(-c2ccnc3cc(-c4ccc(N5CCOCC5)nc4)oc23)ccc1OC1CCOCC1 [Compound A56] | < 300 | < 300 |
| N#Cc1cc(-c2ccnc3cc(-c4cnc5ccccc5c4)oc23)ccc1OC1CCOCC1 [Compound A57] | 300 to 3000 | 3000 to 50000 |
| N#Cc1cc(-c2ccnc3cc(-c4cccc5[nH]ccc45)oc23)ccc1OC1CCOCC1 [Compound A58] | < 300 | < 300 |
| CC(CO)(CCl)COc1ccc(-c2ccnc3cc(-c4ccc(C(=O)N5CCNCC5)cc4)oc23)cc1C#N (stereo not drawn) [Compound A59] | < 300 | < 300 |
| CC(CO)(CO)COc1ccc(-c2ccnc3cc(-c4ccc(C(=O)N5CCNCC5)cc4)oc23)cc1C#N [Compound A60] | < 300 | 300 to 3000 |
| CN1CCN(C(=O)c2ccc(-c3cc4nccc(-c5ccc(OCC6(C)COC6)c(C#N)c5)c4o3)cc2)CC1 [Compound A61] | < 300 | < 300 |
| CN(CCO)C(=O)c1ccc(-c2cc3nccc(-c4ccc(OCC5(C)COC5)c(C#N)c4)c3o2)cc1 [Compound A62] | < 300 | < 300 |
| CN(CCO)C(=O)c1ccc(-c2cc3nccc(-c4ccc(OC5CCOC5)c(C#N)c4)c3o2)cc1 (stereo not drawn) [Compound A63] | < 300 | < 300 |
| CCOc1ncccc1-c1cc2nccc(-c3ccc(OC4CCOCC4)c(C#N)c3)c2o1 [Compound A64] | < 300 | < 300 |
| N#Cc1cc(-c2ccnc3cc(-c4cncc(C(=O)N5CCOCC5)c4)oc23)ccc1OC1CCOCC1 [Compound A65] | < 300 | < 300 |
| COc1cncc(-c2cc3nccc(-c4ccc(OC5CCOCC5)c(C#N)c4)c3o2)c1 [Compound A66] | < 300 | 300 to 3000 |
| N#Cc1cc(-c2ccnc3cc(-c4cnn(C5CCN(CCO)CC5)c4)oc23)ccc1OC1CCOCC1 [Compound A67] | < 300 | < 300 |
| COc1cc(-c2cc3nccc(-c4ccc(OC5CCOC5)c(C#N)c4)c3o2)ccc1C(=O)N1CCNCC1 (stereo not drawn) [Compound A68] | < 300 | < 300 |
| N#Cc1cc(-c2ccnc3cc(-c4cnn(C5CCN(CCCO)CC5)c4)oc23)ccc1OC1CCOCC1 [Compound A69] | < 300 | < 300 |

| SMILES | IC50 (IKKε) [nM] | IC50 [1] [nM] |
| --- | --- | --- |
| CS(=O)(=O)c1cncc(-c2cc3nccc(-c4ccc(OC5CCOCC5)c(C#N)c4)c3o2)c1 [Compound A70] | 300 to 3000 | 300 to 3000 |
| N#Cc1cc(-c2ccnc3cc(-c4ccc5cn[nH]c5c4)oc23)ccc1OC1CCOCC1 [Compound A71] | < 300 | 300 to 3000 |
| N#Cc1cc(-c2ccnc3cc(-c4ccc(C(=O)N5CCNCC5)cc4)oc23)ccc1N1CCCC1 [Compound A72] | < 300 | < 300 |
| N#Cc1cc(-c2ccnc3cc(-c4ccc(C(=O)N5CCNCC5)cc4)oc23)ccc1N1CCOCC1 [Compound A73] | < 300 | < 300 |
| CN1CCN(C(=O)c2ccc(-c3cc4nccc(-c5ccc(N6CCCC6)c(C#N)c5)c4o3)cc2)CC1 [Compound A74] | < 300 | < 300 |
| CN1CCN(C(=O)c2ccc(-c3cc4nccc(-c5ccc(N6CCOCC6)c(C#N)c5)c4o3)cc2)CC1 [Compound A76] | < 300 | < 300 |
| N#Cc1cc(-c2ccnc3cc(-c4ccc(C(=O)NCCN5CCNC5=O)cc4)oc23)ccc1OC1CCOCC1 [Compound A77] | < 300 | < 300 |
| N#Cc1cc(-c2ccnc3cc(-c4ccc(C(=O)NCCN5CCCC5)cc4)oc23)ccc1OC1CCOCC1 [Compound A78] | < 300 | < 300 |
| N#Cc1cc(-c2ccnc3cc(-c4ccc(C(=O)NCCN5CCOCC5)cc4)oc23)ccc1OC1CCOCC1 [Compound A79] | < 300 | < 300 |
| CC(=O)NCCNC(=O)c1ccc(-c2cc3nccc(-c4ccc(OC5CCOCC5)c(C#N)c4)c3o2)cc1 [Compound A80] | < 300 | < 300 |
| N#Cc1cc(-c2ccnc3cc(-c4ccc(C(=O)NCCc5cccnc5)cc4)oc23)ccc1OC1CCOCC1 [Compound A81] | < 300 | 300 to 3000 |
| N#Cc1cc(-c2ccnc3cc(-c4ccc(C(=O)NC5COc6ccccc6C5)cc4)oc23)ccc1OC1CCOCC1 (stereo not drawn) [Compound A82] | 300 to 3000 | 300 to 3000 |
| N#Cc1cc(-c2ccnc3cc(-c4ccc(C(=O)NCCN5CCC(F)(F)CC5)cc4)oc23)ccc1OC1CCOCC1 [Compound A83] | < 300 | < 300 |
| N#Cc1cc(-c2ccnc3cc(-c4ccc(C(=O)N5CCN(CCO)CC5)cc4)oc23)ccc1OC1CCOCC1 [Compound A84] | < 300 | < 300 |
| N#Cc1cc(-c2ccnc3cc(-c4ccc(C(=O)NCCC(F)(F)F)cc4)oc23)ccc1OC1CCOCC1 [Compound A85] | 300 to 3000 | 300 to 3000 |
| N#Cc1cc(-c2ccnc3cc(-c4ccc(C(=O)N5CCNC(=O)CC5)cc4)oc23)ccc1OC1CCOCC1 [Compound A86] | < 300 | < 300 |
| COc1cc(-c2cc3nccc(-c4ccc(OC5CCOCC5)c(C#N)c4)c3o2)ccc1C(=O)NCCN1CCNC1=O [Compound A87] | < 300 | < 300 |
| COc1cc(-c2cc3nccc(-c4ccc(OC5CCOCC5)c(C#N)c4)c3o2)ccc1C(=O)NC1CCCN(C)C1 (stereo not drawn) [Compound A88] | < 300 | < 300 |
| COc1cc(-c2cc3nccc(-c4ccc(OC5CCOCC5)c(C#N)c4)c3o2)ccc1C(=O)N1CCN(CCO)CC1 [Compound A89] | < 300 | < 300 |
